Consider 2 compounds from ChEMBL document CHEMBL1155699, “Steroidal alkaloids from the leaves of Sarcococca coriacea of Nepalese origin” (J Nat Prod, 2001).

One test concerns the target Cholinesterase (Equus caballus, UniProt P81908). Kind of test: Inhibition of horse BChE.
A further test concerns the target Acetylcholinesterase (Electrophorus electricus, UniProt O42275). Kind of test: Inhibition of electric eel AChE by Ellman's method.

Sequence of Cholinesterase (P81908 whole entry): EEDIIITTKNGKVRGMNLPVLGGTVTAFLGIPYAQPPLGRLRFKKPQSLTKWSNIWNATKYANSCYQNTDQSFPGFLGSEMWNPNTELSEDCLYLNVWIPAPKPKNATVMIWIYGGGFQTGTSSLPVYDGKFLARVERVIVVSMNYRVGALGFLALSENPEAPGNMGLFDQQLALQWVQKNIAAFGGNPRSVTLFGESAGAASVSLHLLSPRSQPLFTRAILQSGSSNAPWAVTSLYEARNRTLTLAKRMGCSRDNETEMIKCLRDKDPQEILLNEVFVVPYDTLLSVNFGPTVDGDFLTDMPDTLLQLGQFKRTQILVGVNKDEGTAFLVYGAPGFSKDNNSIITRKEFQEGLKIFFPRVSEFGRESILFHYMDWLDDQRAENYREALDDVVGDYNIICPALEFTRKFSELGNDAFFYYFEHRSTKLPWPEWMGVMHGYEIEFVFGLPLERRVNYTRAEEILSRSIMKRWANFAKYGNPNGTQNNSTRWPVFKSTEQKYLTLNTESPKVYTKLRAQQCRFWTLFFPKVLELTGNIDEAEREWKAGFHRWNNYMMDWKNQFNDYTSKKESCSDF
Sequence of Acetylcholinesterase (O42275 whole entry): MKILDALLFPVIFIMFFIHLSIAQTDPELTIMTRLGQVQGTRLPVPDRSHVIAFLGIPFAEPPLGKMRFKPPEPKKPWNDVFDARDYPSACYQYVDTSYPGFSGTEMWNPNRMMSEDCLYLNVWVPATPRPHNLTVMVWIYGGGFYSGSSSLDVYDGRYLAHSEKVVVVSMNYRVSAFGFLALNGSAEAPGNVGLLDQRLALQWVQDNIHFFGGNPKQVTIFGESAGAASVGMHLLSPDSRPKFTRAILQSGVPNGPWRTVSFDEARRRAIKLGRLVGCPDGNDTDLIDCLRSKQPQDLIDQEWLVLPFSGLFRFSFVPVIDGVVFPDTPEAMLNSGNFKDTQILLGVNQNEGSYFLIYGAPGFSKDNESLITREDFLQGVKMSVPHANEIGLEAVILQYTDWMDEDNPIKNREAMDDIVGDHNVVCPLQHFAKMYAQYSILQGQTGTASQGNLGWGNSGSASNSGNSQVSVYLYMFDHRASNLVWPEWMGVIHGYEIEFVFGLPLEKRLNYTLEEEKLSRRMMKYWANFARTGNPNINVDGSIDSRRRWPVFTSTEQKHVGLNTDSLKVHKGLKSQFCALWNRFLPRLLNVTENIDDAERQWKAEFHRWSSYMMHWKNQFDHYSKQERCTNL

On to `C/C=C(\C)C(=O)N[C@@H]1[C@H](OC(C)=O)[C@@H]2CC[C@@H]3[C@H](CC[C@]4(C)C([C@H](C)NC)=CC[C@@H]34)[C@@]2(C)C[C@@H]1OC(C)=O` [NEPAPAKISTAMINE], for which the 50% inhibitory concentration (IC50) amounted to 25 µM against Cholinesterase and 50.1 µM at Acetylcholinesterase.
On the same counts, the results for `CC(=O)O[C@H]1[C@@H](NC(=O)C=C(C)C)CC[C@]2(C)[C@H]3CC[C@]4(C)C([C@H](C)N(C)C)=CC[C@H]4[C@@H]3CC[C@@H]12` [VAGANINE D] are 10 µM and 46.9 µM.

By IC50 is commonly meant the concentration needed to halve the response being measured. A low value points to greater potency in that assay.
